# In patent publication US11007554B2, “Method, system and device for reducing microbial concentration and/or biofilm formation” (EMODs Technology, L.L.C., priority 2018, dated 2021):
# Read-outs that look alike come from different tables or passages of the source.
# System: microbes
smiles,measurement,setting,value
OO [hydrogen peroxide],microbes eliminated,3% hydrogen peroxide together with radiation of a wavelength between 300 and 600 nanometers,99.999%
same,microbes eliminated,3% solution of hydrogen peroxide alone,approximately 30%
